Results as given in PubChem BioAssay (NCI).
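Grown in 96-well plates, cells were treated for 48 hours with each compound at five concentrations. Insufficient inhibition: endpoint recorded as highest concentration tested. The concentration for full growth arrest is given as TGI.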 *1 amine or outer side, *2 acyl side, *3 side chain or, on linkers, in order; H or OH if unused. Where a SMILES comes first, the peptide text is derived from it. Bridges are numbered along the chain shown (N, C = ends). Roman numbers before positions name the chains, in order. [ ]: non-standard residue; d: D form. Actinocin(9to1) = Cc1c2oc3c(C)ccc(C(=O)[*:1])c3nc-2c(C(=O)[*:2])c(N)c1=O; NMeH = CN[CH](Cc1c[nH]cn1)C(=O)O; Sar = CNCC(=O)O

Key:
Experiment in all cases: inhibition of tumour cell growth, NCI panel, 48 h
[1] = test system: PC-3 prostate
[2] = test system: CCRF-CEM leukemia
[3] = test system: SK-MEL-28 melanoma
[4] = test system: MDA-N
[5] = test system: ACHN renal
[6] = test system: COLO 205 colon
[7] = test system: SK-MEL-2 melanoma
[8] = test system: U251 CNS
[9] = test system: SNB-75 CNS
[10] = test system: HCT-15 colon

Compound | TGI [1] [µM] | TGI [2] [µM] | TGI [3] [µM] | TGI [4] [µM] | TGI [5] [µM] | TGI [6] [µM] | TGI [7] [µM] | TGI [8] [µM] | TGI [9] [µM] | TGI [10] [µM]
O=c1[nH]nc(-c2ccccc2)n1/N=C/c1ccc([N+](=O)[O-])o1 | > 30.3 | 19.6 | 10.3 | 12 | 14.4 | 8.47 | 11.6 | 18.3 | > 70.2 | 17.3
Cc1cc(-n2nnc(C(=O)O)c2-c2ccccc2)c2ccc(Cl)cc2n1 | > 100 | > 100 | > 100 | > 100 | > 100 | > 100 | > 100 | > 100 | > 100 | > 100
C=C(C(=O)O[C@H]1C/C(C)=C/CC/C(CO)=C/[C@H]2C(=O)OC(=C)[C@H]12)C(O)CO (stereo not given in full) | 22.2 | 4.92 | 30.8 | 25.3 | 24.8 | 13.4 | 29.6 | 27.1 | 34.9 | 24.4
N#CC(CCN1CCC(Nc2ccccc2)(c2nnnn2C2CCCCC2)CC1)(c1ccccc1)c1ccccc1 | > 100 | > 100 | > 100 | > 100 | > 100 | > 100 | > 100 | > 100 | > 100 | > 100
COC(=O)C1=C(OC(=O)/C(=C/c2ccccc2)c2ccc(OC)cc2)C(C(=O)OC)[C@@]2(O)[C@@H](C(=O)OC)[C@H](C)C[C@@H]1[C@@H]2C(=O)OC (stereo not given in full) | > 100 | > 100 | > 100 | > 100 | > 100 | > 100 | > 100 | > 100 | > 100 | > 100
Cc1c2oc3c(C)ccc(C(=O)NC4C(=O)NC(C(C)C)C(=O)N5CCCC5C(=O)N(C)CC(=O)N(C)C(Cc5cnc[nH]5)C(=O)OC4C)c3nc-2c(C(=O)NC2C(=O)NC(C(C)C)C(=O)N3CCCC3C(=O)N(C)CC(=O)N(C)C(Cc3cnc[nH]3)C(=O)OC2C)c(N)c1=O (stereo not given) (I: TVP[Sar][NMeH] / II: TVP[Sar][NMeH]; ester I:1-I:C, II:1-II:C; linker I:N-II:N via Actinocin(9to1); configuration not given here) | > 100 | > 100 | > 100 | 81.4 | > 100 | > 100 | > 100 | > 100 | > 100 | > 100
